Some results are limits rather than exact numbers.

A word on the EC50: it is the concentration needed to bring the measured effect to its halfway point. As usually defined, the IC50 is the concentration needed to halve the response being measured. The low end stands for greater potency, the high end for weaker potency.

Assay [1] deals with Ramos cells. Put plainly: Cytotoxicity in Ramos cells. It counts as cell-based. To be noted: Homo sapiens, read-out: Ramos cell EC50. On the procedure: (§1) Compounds in Example 4 above were tested for activity against F1F0-ATPase by measuring ATP synthesis. In addition, the compounds were assessed for cytotoxicity in Ramos cells. Inhibition of ATP synthesis by the F1F0-ATPase and cytotoxicity in Ramos cells were measured according to the procedures described in K. M. Johnson et al. Chemistry & Biology 2005, 12, 485-496.

Assay [2] has as its target T1, F1F0-ATPase (Bos taurus, UniProt P13621).
T1 construct: from tissue
The assay can be described thus: Inhibition of ATP synthesis by the F1F0-ATPase. It counts as biochemical. How it is done: as §1

As to `COC(=O)NC1CCC(N/C(=N\C(=O)c2ccc(OC)cc2)Nc2cc(F)cc(Cl)c2)CC1` (stereo not shown) [Compound 153], in assay [1], the EC50 was less than 10 µM. Besides, the IC50 in assay [2] was less than 10 µM.
For the compound `COc1ccc(C(=O)/N=C(/Nc2cc(F)cc(Cl)c2)NC2CCC(NC(=O)c3ccccc3)CC2)cc1` (stereo not shown) [Compound 154], the EC50 in assay [1] was less than 10 µM. This compound gave an IC50 in assay [2] of less than 10 µM.
For `CCOC(=O)NC1CCC(N/C(=N\C(=O)c2cccc(OC)c2)Nc2cc(F)cc(Cl)c2)CC1` (stereo not shown) [Compound 155], the EC50 in assay [1] is less than 10 µM. In addition, the IC50 in assay [2] is less than 10 µM.
Regarding `COC(=O)NC1CCC(N/C(=N\C(=O)c2cccc(OC)c2)Nc2cc(F)cc(Cl)c2)CC1` (stereo not shown) [Compound 156], in assay [1], the EC50 was less than 10 µM. Also, in assay [2], the IC50 was less than 10 µM.
Regarding `COc1cccc(C(=O)/N=C(/Nc2cc(F)cc(Cl)c2)NC2CCC(NC(=O)c3ccccc3)CC2)c1` (stereo not shown) [Compound 157], the EC50 in assay [1] is less than 10 µM. The IC50 in assay [2] was less than 10 µM.
As to `CCOC(=O)NC1CCC(N/C(=N\C(=O)c2ccc(C)cc2)Nc2cc(F)cc(Cl)c2)CC1` (stereo not shown) [Compound 158], the EC50 in assay [1] was less than 10 µM. Further, in assay [2], the concentration for half-maximal inhibition (IC50) was less than 10 µM.
On to `CCOC(=O)NC1CCC(N/C(=N\C(=O)c2cccc(C)c2)Nc2cc(F)cc(Cl)c2)CC1` (stereo not shown) [Compound 159], for which the EC50 in assay [1] is less than 10 µM. In assay [2], this compound showed an IC50 of less than 10 µM.
With `CCOC(=O)NC1CCC(N/C(=N\C(=O)c2ccc(C)c(F)c2)Nc2cc(F)cc(Cl)c2)CC1` (stereo not shown) [Compound 160], the EC50 in assay [1] was less than 10 µM. The IC50 in assay [2] was less than 10 µM.
Take `CCOC(=O)NC1CCC(N/C(=N\C(=O)c2ccc(F)c(C)c2)Nc2cc(F)cc(Cl)c2)CC1` (stereo not shown) [Compound 161]: the EC50 in assay [1] was less than 10 µM. Besides, the IC50 in assay [2] is less than 10 µM.
Consider `CC(C)(C)OC(=O)NC1CCC(NC(=NC(=O)c2ccc(Cl)cc2)NC2CCC(NC(=O)OC(C)(C)C)CC2)CC1` (stereo not shown) [Compound 162], for which the 50% effective concentration (EC50) in assay [1] was more than 10 µM. In addition, the IC50 in assay [2] was more than 10 µM.
Turning to `O=C(/N=C(/Nc1cc(F)cc(Cl)c1)NC1CCC(NC(=O)N2CCCC2)CC1)c1ccc(Cl)cc1` (stereo not shown) [Compound 163], in assay [1], the EC50 was less than 10 µM. Further, in assay [2], the IC50 was less than 10 µM.
For `O=C(/N=C(/Nc1cc(F)cc(Cl)c1)NC1CCC(NC(=O)c2ccccc2)CC1)c1ccc(Cl)cc1` (stereo not shown) [Compound 164], the EC50 in assay [1] is less than 10 µM. For the same compound, the IC50 in assay [2] was less than 10 µM.
For `CCOC(=O)NC1CCC(N/C(=N\C(=O)c2ccc(Cl)cc2)Nc2cc(F)cc(Cl)c2)CC1` (stereo not shown) [Compound 165], the EC50 in assay [1] was less than 10 µM. In addition, the IC50 in assay [2] is less than 10 µM.
Consider `COC(=O)NC1CCC(N/C(=N\C(=O)c2ccc(Cl)cc2)Nc2cc(F)cc(Cl)c2)CC1` (stereo not shown) [Compound 166], for which the concentration giving a half-maximal response (EC50) in assay [1] is less than 10 µM. Moreover, in assay [2], the IC50 is less than 10 µM.
With `CC(C)(C)OC(=O)NC1CCC(N/C(=N\C(=O)c2ccc(F)c(F)c2)Nc2cc(F)cc(Cl)c2)CC1` (stereo not shown) [Compound 167], in assay [1], the EC50 is less than 10 µM. In assay [2], this compound yielded an IC50 of less than 10 µM.
Turning to `O=C(/N=C(/Nc1cc(F)cc(Cl)c1)NC1CCC(NC(=O)c2nccs2)CC1)c1ccc(F)c(F)c1` (stereo not shown) [Compound 168], the concentration for a half-maximal effect (EC50) in assay [1] was less than 10 µM. This compound gave an IC50 in assay [2] of less than 10 µM.
Consider `O=C(/N=C(/Nc1cc(F)cc(Cl)c1)NC1CCC(NC(=O)c2cccnc2)CC1)c1ccc(F)c(F)c1` (stereo not shown) [Compound 169], for which the EC50 in assay [1] is less than 10 µM. Also, in assay [2], the IC50 was less than 10 µM.
Turning to `O=C(/N=C(/Nc1cc(F)cc(Cl)c1)NC1CCC(NC(=O)c2cscn2)CC1)c1ccc(F)c(F)c1` (stereo not shown) [Compound 170], the EC50 in assay [1] is less than 10 µM. Also, the IC50 in assay [2] was less than 10 µM.
Regarding `O=C(/N=C(/Nc1cc(F)cc(Cl)c1)NC1CCC(NC(=O)c2ccccn2)CC1)c1ccc(F)c(F)c1` (stereo not shown) [Compound 171], in assay [1], the EC50 was less than 10 µM. The compound further displayed an IC50 in assay [2] of less than 10 µM.
On to `O=C1CCC(N/C(=N\C(=O)c2ccc(C(F)(F)F)cc2)Nc2cc(F)cc(Cl)c2)CC1` [Compound 172], for which, in assay [1], the half-maximal effective concentration (EC50) is less than 10 µM. In assay [2], this compound had an IC50 of less than 10 µM.

For the origin of these results see patent US9169199B2, “Cycloalkyl guanidine F1F0-ATPase inhibitors and therapeutic uses thereof” (Lycera Corporation, priority 2010, dated 2015).
